Assay results from patent US8865672B2, “Prevention of tissue ischemia and related methods” (The United States of America, as represented by the …, priority 2006, dated 2014).
Peptide text beside a SMILES is read from it.

Experiments:
[1] = tested on: blood pressure and pulse in mice; test: Blood pressure and pulse measurements (tail cuff); assay type: in vivo, mouse
Procedure: Mean systolic, diastolic and arterial blood pressure (BP) and mean pulse was measured in age and sex matched mice using a computerized tail cuff system (Hatteras Systems, MC4000 Blood Pressure Analysis System, Cary, N.C.). The mice were allowed to acclimate to the apparatus for 5 min prior to the start of measurement. Each animal underwent a cycle of 10 preliminary and 50 experimental pressures measurements for data acquisition and data calculation. Animals were acclimated to the measuring system and protocol for 4 days with treatment with data acquisition being performed on the 5th day. Pressures recordings were performed at the same time each day. Data was accepted if the mouse had valid readings for at least 20 consecutive pulse beats. All studies were performed at the same hour each day.
Respirations were monitored continuously monitored by direct observation of the animal. Body core temperature was measured via rectal probe. Temperature control was performed using a water-circulating warming surface and heating lamp. Following a 15 minute period of stabilization mean systolic, diastolic and arterial blood pressure and mean pulse measurements were determined.

human platelets [2] = test: Thrombin-induced human platelet aggregation; assay type: cell-based; conditions: DEA/NO 10 μM
Procedure: Platelets were pelleted from platelet-rich plasma (PRP) by centrifugation for 10 minutes at 200 g. They were then washed with acid citrate dextrose (ACD) (85 mM citric acid, 65 mM sodium citrate, 100 mM glucose, pH 5.1) at a ratio of 1:7 at room temperature. After pelleting the platelets again and removing the supernatant, the platelets were resuspended in 5 mL of Tyrode's buffer (137 mM NaCl, 3 mM KCl, 12 mM NaHCO3, 0.3 mM NaHPO4, 2 mM CaCl2, 1 mM MgCl2, 5.5 mM glucose, 5 mM HEPES, 3.5 mg/mL BSA, pH 7.4). The final platelet number was adjusted to […] in 500 μl/cuvette of Tyrode's buffer.
Aggregation of human platelets under high shear conditions was assessed using a standard optical aggregometer (Lumi-Dual Aggregometer, Chrono-Log Corp., Havertown, Pa.) at 37° C. and 1200 rpm in a volume of 500 μl buffer with a final platelet concentration of 2×10^5 platelets/μl over a 5 minute interval. Pre-incubation with TSP1 and TSP1-based agents was for 15 minutes prior to addition of thrombin and/or the rapidly releasing nitric oxide donor DEA/NO. In some experiments platelets were pre-incubated with the Rap1 inhibitor GGTI-298 (10 μM) (Calbiochem, La Jolla, Calif.) for 30 minutes prior to initiating aggregation. In other high shear aggregation experiments murine platelets were prepared as above with the following modifications. Mouse blood was collected by retro-orbital bleeding of anesthetized mice using heparinized tubes. PRP was prepared and then diluted with 4 vol. of Tyrodes containing 5 mM EDTA to prevent activation. After collection by centrifugation, platelets were resuspended in 2× initial PRP volume and held at room temperature for less than 1 hour before use. Aggregation conditions consisted of 250 μL of washed platelets stirred at 1200 rpm in a Chronolog Optical aggregometer at 37° C. DEA/NO (10 μM) was added 30 seconds prior to activation and 8-BrcGMP added 15 min prior to activation with 0.2 U/ml human thrombin. Data was collected using Chronolog “Aggrolink” software. Platelet aggregation under static conditions was assessed using a spectrophotometer (Beckman DU 640, Beckman Coulter, Fullerton, Calif.) and determined as a change in absorbance at 400 nm with continuous observation over a five minute interval. The cuvette was inverted once every 60 seconds. Pre-incubation with TSP1 and TSP1-based agents was for 15 minutes prior to addition of thrombin and/or DEA/NO to minimize the formation of thrombin-serpinthrombospondin complexes (Chang & Detwiler, Arch Biochem Biophys. 299:100-104, 1992), which interfere with thrombin-platelet interactions.
Fresh human platelets were suspended in Tyrode's buffer and under low shear conditions thrombin-stimulated aggregation measured as described. Platelets were then treated with peptide C6d (1 μM)±NO (10 μM DEA/NO) and thrombin and aggregation measure.

HUVEC = test: NO-stimulated HUVEC adhesion on type I collagen; assay type: cell-based, human; conditions: DEA/NO 10 μM, 1 h
Procedure: Cell adhesion was carried out in 96-well culture plates. After pre-coating wells with type I collagen (3 μg/ml in DPBS) harvested cells were plated at a density of 1×10^4 cells/well in medium plus 0.1% BSA and treatment agents and incubated in 5% CO2 for 1 h. Wells were washed with PBS and cells fixed with 1% glutaraldehyde for 10 min., washed and stained with 1% crystal violet for 20 min. Excess stain was rinsed away, adherent cells treated with 10% acetic acid, and plates read at 570 nm.

NO/cGMP signaling = test: cGMP signaling (NO-stimulated cGMP, immunoassay); assay type: cell-based, human; conditions: concentration for 50% inhibition of effect
Procedure: Vascular cells (endothelial) or HT-1080 cells (10^4 cells/well) grown overnight in 12-well culture in SM-GM containing 2% FCS or RPMI+10% FCS respectively and then weaned off serum over 48 h before treatment with NO donors and other agents in serum/additive free medium+0.1% BSA. Intracellular cGMP levels were determined using an enzyme immunoassay (Amersham, GE Health Care, UK). In other experiments fresh washed human platelets were incubated in Tyrode's buffer and the indicated treatment agents±NO and cGMP determined.

human platelets [3] = test: cGMP in human platelets; assay type: cell-based; conditions: washed human platelets in Tyrode's buffer
Procedure: Fresh human platelets at 2×10^5 platelets/μl in Tyrode's buffer or PRP were pre-incubated with the indicated agents for 15 minutes and then challenged with DEA/NO for the indicated time interval at room temperature and total cGMP determined via immunoassay (Amersham, GE Healthcare, Buckinghamshire, UK). Murine WT and TSP1-null platelets were treated with DEA/NO and cGMP flux measured.

FC(F)OC(Cl)C(F)(F)F (stereo not shown) [isoflurane, Isoflurane]
blood pressure under general anesthesia ([1]; TSP1-null animals): significant decreases in systolic, diastolic and mean arterial blood pressures | blood pressure under general anesthesia ([1]; wild type mice): very modest overall drop in mean arterial pressure

KRFKQDGGWSHWSPWSS [p246]
NO delay of thrombin-induced platelet aggregation (human platelets [2]; static / low shear conditions): inactive

CCCN(CCCN)/[N+]([O-])=N/O [PAPA/NO]
mean arterial blood pressure response ([1]; CD47 null animals, i.p.): greatest drop in mean arterial blood pressure | blood pressure response ([1]; TSP1 null versus wild type, i.p.): drop in mean arterial pressure always greater in the absence of TSP1 | mean pulse ([1]; after i.p. challenge): only modestly increased

VTAGGGVQKRSRL [p906]
NO-stimulated endothelial cell adhesion on type I collagen (HUVEC): inhibited NO-stimulated endothelial cell adhesion | NO delay of thrombin-induced platelet aggregation (human platelets [2]; static / low shear conditions): reversed an NO-stimulated delay of platelet aggregation

FIRGGMYEGKK [compound 604, control peptide for 7N3]
NO delay of thrombin-induced platelet aggregation (human platelets [2]; high shear, thrombin 0.2 U/ml): no effect

CC[C@H](C)[C@H](N)C(=O)NCC(=O)N[C@@H](Cc1c[nH]c2ccccc12)C(=O)N[C@@H](CCCCN)C(=O)N[C@@H](CC(N)=O)C(=O)N[C@@H](Cc1ccccc1)C(=O)N[C@H](C(=O)N[C@@H](C)C(=O)N[C@@H](Cc1ccc(O)cc1)C(=O)N[C@@H](CCCNC(=N)N)C(=O)O)[C@@H](C)O [compound 37297, IGWKNFTAYR] (H-IGWKNFTAYR-OH)
IC50 (NO/cGMP signaling): > 10000 nM

CC[C@H](C)[C@H](N)C(=O)NCC(=O)N[C@@H](Cc1c[nH]c2ccccc12)C(=O)N[C@@H](Cc1c[nH]cn1)C(=O)N[C@@H](CC(=O)O)C(=O)N[C@@H](Cc1ccccc1)C(=O)N[C@H](C(=O)N[C@@H](C)C(=O)N[C@@H](Cc1ccc(O)cc1)C(=O)N[C@@H](CCCNC(=N)N)C(=O)O)[C@@H](C)O [compound 37414, IGWHDFTAYR] (H-IGWHDFTAYR-OH)
IC50 (NO/cGMP signaling): > 10000 nM

CC(=O)N[C@@H](Cc1c[nH]c2ccccc12)C(=O)N[C@@H](CCCCN)C(=O)N[C@@H](CC(=O)O)C(=O)N[C@@H](Cc1ccccc1)C(=O)N[C@H](C(=O)N[C@@H](C)C(=O)N[C@@H](Cc1ccc(O)cc1)C(=O)N[C@@H](CCCNC(=N)N)C(=O)O)[C@@H](C)O [compound 37300, Ac-WKDFTAYR] (Ac-WKDFTAYR-OH)
IC50 (NO/cGMP signaling): ~1000 nM

RFYGGMWK [p4N1G, control peptide, VVM substituted by GGM]
NO-stimulated endothelial cell adhesion on type I collagen (HUVEC): did not significantly inhibit

CC[C@H](C)[C@H](N)C(=O)NCC(=O)N[C@@H](Cc1ccc(O)cc1)C(=O)N[C@@H](CCCCN)C(=O)N[C@@H](CC(=O)O)C(=O)N[C@@H](Cc1ccccc1)C(=O)N[C@H](C(=O)N[C@@H](C)C(=O)N[C@@H](Cc1ccc(O)cc1)C(=O)N[C@@H](CCCNC(=N)N)C(=O)O)[C@@H](C)O [compound 37417, IGYKDFTAYR] (H-IGYKDFTAYR-OH)
IC50 (NO/cGMP signaling): ~100 nM

IGWKAFTAYR [compound 37296]
cGMP signaling IC50 (NO/cGMP signaling): inactive

fibrinogen
NO delay of thrombin-induced platelet aggregation (human platelets [2]; high shear, thrombin 0.2 U/ml): no significant effect

IGWKDFTAYK [compound 37554]
cGMP signaling IC50 (NO/cGMP signaling): inactive

C[C@H](N)C(=O)NCC(=O)N[C@@H](Cc1c[nH]c2ccccc12)C(=O)N[C@@H](CCCCN)C(=O)N[C@@H](CC(=O)O)C(=O)N[C@@H](Cc1ccccc1)C(=O)N[C@H](C(=O)N[C@@H](C)C(=O)N[C@@H](Cc1ccc(O)cc1)C(=O)N[C@@H](CCCNC(=N)N)C(=O)O)[C@@H](C)O [compound 37416, AGWKDFTAYR] (H-AGWKDFTAYR-OH)
IC50 (NO/cGMP signaling): ~1000 nM

RFYVVMWK [4N1-1]
NO-stimulated endothelial cell adhesion on type I collagen (HUVEC): inhibited NO-stimulated endothelial cell adhesion | NO delay of thrombin-induced platelet aggregation (human platelets [2]; static / low shear conditions): prevented an NO-stimulated delay in platelet aggregation

CC[C@H](C)[C@H](N)C(=O)NCC(=O)N[C@@H](Cc1c[nH]c2ccccc12)C(=O)N[C@@H](CCCCN)C(=O)N[C@@H](CCC(=O)O)C(=O)N[C@@H](Cc1ccccc1)C(=O)N[C@H](C(=O)N[C@@H](C)C(=O)N[C@@H](Cc1ccc(O)cc1)C(=O)N[C@@H](CCCNC(=N)N)C(=O)O)[C@@H](C)O [compound 37415, IGWKEFTAYR] (H-IGWKEFTAYR-OH)
IC50 (NO/cGMP signaling): 1000 nM

FIRVAIYEGKK [compound 605, control peptide for 7N3]
NO delay of thrombin-induced platelet aggregation (human platelets [2]; high shear, thrombin 0.2 U/ml): no effect

KRFYVVMWKK [4N1K, derivative of the 4N1-1 peptide with terminal lysines]
NO delay of thrombin-induced platelet aggregation (human platelets [2]; static / low shear conditions): prevented an NO-stimulated delay in platelet aggregation

CC[C@H](C)[C@H](N)C(=O)NCC(=O)N[C@@H](Cc1c[nH]c2ccccc12)C(=O)N[C@@H](C)C(=O)N[C@@H](CC(=O)O)C(=O)N[C@@H](Cc1ccccc1)C(=O)N[C@H](C(=O)N[C@@H](C)C(=O)N[C@@H](Cc1ccc(O)cc1)C(=O)N[C@@H](CCCNC(=N)N)C(=O)O)[C@@H](C)O [compound 37413, IGWADFTAYR] (H-IGWADFTAYR-OH)
IC50 (NO/cGMP signaling): > 10000 nM

E123CaG-1: recombinant C-terminal domains of TSP1
NO stimulated cGMP in platelets (human platelets [3]): inhibited NO stimulated cGMP flux | NO delay of thrombin-induced platelet aggregation (human platelets [2]; high shear, thrombin 0.2 U/ml): blocked the ability of NO to delay thrombin-induced aggregation | NO delay of thrombin-induced platelet aggregation (human platelets [2]; static / low shear conditions): reversed the NO delay of aggregation under static conditions

CC[C@H](C)[C@H](N)C(=O)NCC(=O)N[C@@H](Cc1c[nH]c2ccccc12)C(=O)N[C@@H](CCCCN)C(=O)N[C@@H](CC(=O)O)C(=O)N[C@@H](Cc1ccccc1)C(=O)N[C@H](C(=O)N[C@@H](C)C(=O)N[C@@H](C)C(=O)N[C@@H](CCCNC(=N)N)C(=O)O)[C@@H](C)O [compound 37555, IGWKDFTAAR] (H-IGWKDFTAAR-OH)
IC50 (NO/cGMP signaling): ~10000 nM

fibronectin [reference compound]
NO stimulated cGMP in platelets (human platelets [3]): no inhibition | NO delay of thrombin-induced platelet aggregation (human platelets [2]; high shear, thrombin 0.2 U/ml): no significant effect

CC[C@H](C)[C@H](N)C(=O)NCC(=O)N[C@@H](Cc1c[nH]c2ccccc12)C(=O)N[C@@H](CCCCN)C(=O)N[C@@H](CC(=O)O)C(=O)N[C@@H](Cc1ccccc1)C(=O)N[C@@H](C)C(=O)N[C@@H](C)C(=O)N[C@@H](Cc1ccc(O)cc1)C(=O)N[C@@H](CCCNC(=N)N)C(=O)O [compound 37299, IGWKDFAAYR] (H-IGWKDFAAYR-OH)
IC50 (NO/cGMP signaling): > 10000 nM
